We go through 6 compounds from publication PMC6155222, “3-Substituted N-Benzylpyrazine-2-carboxamide Derivatives: Synthesis, Antimycobacterial and Antibacterial Evaluation” (Molecules : A Journal of Synthetic Chemistry and Natural …, 2017).

≈ marks a conversion by molar mass, not a printed value.

For data set [1], the system named is M. kansasii Hauduroy CNCTC My 235/80. The experiment in a line: Microplate Alamar Blue Assay (MABA), microdilution panel method. Format: cell-based. The following applies: Mycobacterium kansasii.
Data set [2] concerns Mycobacterium tuberculosis H37Rv. The data set is described as above. Format: cell-based.
Data set [3] in a line: Determination of lipophilicity by RP-HPLC (log k). As to conditions: RP-HPLC capacity factor, MeOH 70% / H2O 30%, C18, 30 °C.
Description: Log k was determined using an Agilent Technologies 1200 SL liquid chromatograph with Diode-array Detector SL G1315C (Agilent Technologies Inc., Colorado Springs, CO, USA), with pre-column ZORBAX XDB-C18 5 μm, 4 mm × 4 mm, Part No. 7995118-504 (Agilent Technologies Inc.) and column ZORBAX Eclipse XDB-C18 5 μm, 4.6 mm × 250 mm, Part No. 7995118-585 (Agilent Technologies Inc.). The separation process was controlled by Agilent ChemStation, version B.04.02, extended by a spectral module (Agilent Technologies Inc.). The mobile phase consisted of MeOH (HPLC grade, 70%) and H2O (HPLC-Milli-Q Grade, 30%).
The flow rate was 1.0 mL/min, samples were injected in a volume of 20 μL, and the column temperature was 30 °C. A value of 210 nm as the detection wavelength and 270 nm as the monitor wavelength were used. Retention times (tR) were measured in minutes. The dead time of the system (tD) was determined as the retention time of the KI methanol solution. Capacity factors k for individual compounds were calculated according to the formula k = (tR − tD)/tD. Log k, calculated from the capacity factor k, as used as the lipophilicity index converted to log scale.
Data set [4] deals with M. avium ssp. avium Chester CNCTC My 80/72. The experiment in a line: Microplate Alamar Blue Assay (MABA), microdilution panel method. Format: cell-based. The following applies: Mycobacterium avium. On the technique in general: Alamar Blue is a resazurin reagent that responds to reducing activity.
Data set [5] has as its system Mycobacterium smegmatis CCM 4622 (ATCC 607). Briefly: Antimycobacterial screening, microdilution broth panel method with resazurin. The format is cell-based. The following applies: Mycolicibacterium smegmatis, 48 h + 4 h. Here is the method:
An antimycobacterial assay was performed with fast growing Mycobacterium smegmatis CCM 4622 (ATCC 607) from the Czech Collection of Microorganisms (Brno, Czech Republic). The technique used for activity determination was a microdilution broth panel method using 96-well microtitration plates. The culturing medium was Middlebrook 7H9 (MB) broth (Sigma-Aldrich), enriched with 0.4% of glycerol (Sigma-Aldrich) and 10% of Middlebrook OADC growth supplement (Himedia, Mumbai, India). Tested compounds were dissolved in DMSO (Sigma-Aldrich), and the MB broth was then added to obtain a concentration of 2000 μg·mL^−1. Standards used for activity determination were isoniazid (INH), rifampicin (RIF), and ciprofloxacin (CPX) (Sigma-Aldrich). Final concentrations were reached by binary dilution and the addition of mycobacterial suspension, and were set as 500, 250, 125, 62.5, 31.25, 15.625, 7.81, and 3.91 μg·mL^−1, except for the standards of ciprofloxacin and rifampicin, where the final concentrations were 12.5, 6.25, 3.125, 1.56, 0.78, 0.39, 0.195, and 0.098 μg·mL^−1. […] Plates were also sealed with polyester adhesive film and incubated in the dark at 37 °C, without agitation. The addition of 0.01% solution of resazurin sodium salt followed after 48 h. This stain was prepared by dissolving resazurin sodium salt (Sigma-Aldrich) in deionised water, producing a 0.02% solution. Then, a 10% aqueous solution of Tween 80 (Sigma-Aldrich) was prepared. Both liquids were mixed up making use of the same volumes and filtered through a syringe membrane filter. Microtitration panels were then incubated for a further 4 h. Antimycobacterial activity was expressed as the minimal inhibition concentration (MIC) and the value was read on the basis of stain colour change (blue colour—active compound; pink colour—not active compound). […] All experiments were conducted in duplicate.
For orientation: Broth dilution looks for growth in wells or tubes with falling amounts of substance.

Data set [6] is described as follows: Cytotoxicity assay, CellTiter 96 Aqueous One Solution. The format is cell-based. The following applies: human, HepG2 cells; for IC50 at 24 h: 24 h exposure. Here is the method: The human liver hepatocellular carcinoma cell line HepG2 (passage 35–36), purchased from Health Protection Agency Culture Collections (ECACC, Salisbury, UK), was routinely cultured in Minimum Essential Eagle Medium MEM (Sigma-Aldrich) supplemented with 10% fetal bovine serum (PAA Laboratories GmbH, Pasching, Austria), 2mM L-glutamine solution (Sigma-Aldrich), and 1% non-essential amino acid solution (Sigma-Aldrich), in a humidified atmosphere containing 5% CO2 at 37 °C.
For subculturing, the cells were harvested after trypsin/EDTA (Sigma-Aldrich) treatment at 37 °C. To evaluate the cytotoxicity, the HepG2 cells treated with the tested substances were used as experimental groups, whereas untreated HepG2 cells served as control groups.
The HepG2 cells were seeded in a density of 1 × 10^4 cells per well on a 96-well plate. The following day (24 h after seeding), they were treated with tested substances dissolved in DMSO (maximal incubation concentration of DMSO was 1%). […] The treatment was carried out in a humidified atmosphere containing 5% CO2 at 37 °C, in triplicate, for 24 h. The controls representing 100% cell viability, 0% cell viability (the cells treated with 10% DMSO), no-cell controls, and vehiculum controls were incubated in triplicate, simultaneously. After 24 h exposure, the reagent from the kit CellTiter 96® Aqueous One Solution Cell Proliferation Assay (Promega) was added, according to the recommendation of the manufacturer. After 2 h incubation at 37 °C in humidified, 5% CO2 atmosphere, the absorbance was recorded at 490 nm. Inhibitory curves were constructed for each compound, plotting incubation concentrations vs. percentage of absorbance relative to untreated control. The standard toxicological parameter IC50 was calculated by a nonlinear regression analysis of the inhibitory curves using GraphPad Prism software (version 6, GraphPad Software, Inc., La Jolla, CA, USA).

For data set [7], the system named is Staphylococcus aureus CCM 4516/08. Briefly: Antibacterial microdilution broth method. Format: cell-based. The following applies: CCM4516, 24 h, read-out: MIC after 24 h S. aureus. As to the method: (§1) Microdilution broth method. Antibacterial evaluation was performed against eight bacterial strains from the Czech Collection of Microorganisms (Brno, Czech Republic) (Staphylococcus aureus CCM 4516/08, Escherichia coli CCM 4517, Pseudomonas aeruginosa CCM 1961) or clinical isolates from the Department of Clinical Microbiology, University Hospital and Faculty of Medicine in Hradec Králové, Charles University in Prague, Czech Republic (Staphylococcus aureus H 5996/08-methicilin resistant (MRSA), Staphylococcus epidermidis H 6966/08, Enterococcus sp. J 14365/08, Klebsiella pneumoniae D 11750/08, Klebsiella pneumoniae J 14368/08-ESBL positive). All strains were subcultured on Mueller-Hinton agar (MHA) (Difco/Becton Dickinson, Detroit, MI, USA) at 35 °C and maintained on the same medium at 4 °C. The compounds were dissolved in DMSO, and the antibacterial activity was determined in Mueller-Hinton liquid broth (Difco/Becton Dickinson), and buffered to pH 7.0. Controls consisted of medium and DMSO alone. […] The minimum inhibitory concentration (MIC), defined as the minimum concentration to prevent the visible growth compared to control, was determined after 24 and 48 h of static incubation at 35 °C. The standards were neomycin, bacitracin, penicillin G, ciprofloxacin, and phenoxymethylpenicillin.

The test system of data set [8] is Staphylococcus epidermidis H 6966/08. The experiment in a line: Antibacterial microdilution broth method. Format: cell-based. As to conditions: Staphylococcus epidermidis, H6966/08, 24 h; read-out: MIC after 24 h S. epidermidis. Here is the method: as §1
For data set [9], the system named is Staphylococcus aureus H 5996/08-methicilin resistant (MRSA). Briefly: Antibacterial microdilution broth method. The format is cell-based. As to conditions: Staphylococcus aureus, MRSA, 24 h; read-out: MIC after 24 h MRSA. Here is the method: as §1

By MIC is commonly meant the lowest concentration that inhibits growth of the organism. On to `O=C(NCc1ccc(Cl)cc1)c1nccnc1NCc1ccc(Cl)cc1` [Compound 7a, N-(4-Chlorobenzyl)-3-((4-chlorobenzyl)amino)pyrazine-2-carboxamide], for which the minimal inhibitory concentration (MIC) in [1] was more than 50 µg/mL; in [2] (pH 6.6), more than 50 µg/mL; in data set [4], more than 50 µg/mL; in data set [5], more than 250 µg/mL. Further, in data set [3], the Log k is given as 1.533.

In general, IC50 refers to the concentration needed to halve the response being measured. For `Cc1ccccc1CNC(=O)c1nccnc1NCc1ccccc1C` [Compound 1a, N-(2-Methylbenzyl)-3-((2-methylbenzyl)amino)pyrazine-2-carboxamide], the MIC in data set [2] (pH 6.6) was 12.5 µg/mL; in data set [2] (value in parentheses), 36 µM; in data set [5], more than 500 µg/mL. The same compound registered a Log k in [3] of 1.459. In addition, in data set [6], the half-inhibitory concentration (IC50) at 24 h is more than 250 µM.

Turning to `O=C(NCc1ccc(Cl)c(Cl)c1)c1nccnc1NCc1ccc(Cl)c(Cl)c1` [Compound 9a, N-(3,4-Dichlorobenzyl)-3-((3,4-dichlorobenzyl)amino)pyrazine-2-carboxamide], the figures for the MIC in data set [2] (pH 6.6), in data set [2] (value in parentheses) and in [5] were 12.5 µg/mL, 27 µM and more than 500 µg/mL, respectively. The compound further came in with a Log k in [3] of 1.997. The same compound gave a half-maximal inhibitory concentration (IC50) at 24 h in data set [6] of more than 100 µM.

As to `O=C(NCc1ccccc1Cl)c1nccnc1Cl` [Compound 5, 3-Chloro-N-(2-chlorobenzyl)pyrazine-2-carboxamide], the minimal inhibitory concentration (MIC) in data set [7] was 7.81 µM (≈ 2.2 µg/mL); in data set [8] it was 15.6 µM (≈ 4.41 µg/mL); in data set [9], 500 µM (≈ 141 µg/mL); in [2] (pH 6.6) it was more than 100 µg/mL; in data set [5] it was 250 µg/mL. Besides, in data set [3], the Log k worked out at 0.033. Moreover, the selectivity ratio at 24 h in data set [6] (HepG2 IC50 / MIC S. aureus, read-out: selectivity index, SI = IC50/MIC) was determined as 108. The same compound came in with a half-maximal inhibitory concentration (IC50) at 24 h in data set [6] of 847 µM.

Consider `NNC(=O)c1ccncc1` [INH, isoniazid, reference compound], for which the MIC in data set [1] was 3.13 to 12.5 µg/mL (≈ 22.8 to 91.1 µM); in data set [2] (pH 6.6) it was 0.2 µg/mL; in data set [4], 6.25 to 12.5 µg/mL (≈ 45.6 to 91.1 µM); in data set [5], 7.81 to 15.6 µg/mL.

Take `COc1ccc(CNC(=O)c2nccnc2NCc2ccc(OC)cc2)cc1` [Compound 3a, N-(4-Methoxybenzyl)-3-((4-methoxybenzyl)amino)pyrazine-2-carboxamide]: the MIC was 15.6 µM (≈ 5.91 µg/mL) in data set [7]; more than 500 µM in data set [8]; 62.5 µM (≈ 23.7 µg/mL) in data set [9]; 50 µg/mL in data set [2] (pH 6.6); 132 µM in [2] (value in parentheses); more than 500 µg/mL in data set [5]. In data set [3], this compound showed a Log k of 0.981. The IC50 at 24 h in [6] is more than 100 µM.
